Results from PubChem BioAssay AID1918935 (Molecular Pharmacology Branch, DTP, NCI, 2023).

Test system: 324938-238-R-J1-PDC complex spheroid viability
Assay: Anticancer human tumor 324938-238-R-J1-PDC patient-derived bladder carcinoma cell line growth inhibition
Details: for IC50: curve of first compound; for viability, T/C: stronger effect = lower value
In short: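 Complex spheroids of tumor cells with HUVEC and human MSCs, exposed to iadademstat combined with other agents. Each agent tested in half-log steps from near clinical Cmax (else 10 microM top), DMSO ≤0.25%.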

[1] = second compound 0.1 µM, first compound 0.00316 µM
[2] = second compound 0.1 µM, first compound 0.01 µM
[3] = second compound 0.1 µM, first compound 0.0316 µM
[4] = second compound 0.1 µM, first compound 0.1 µM
[5] = second compound 0.316 µM, first compound 0.00316 µM
[6] = second compound 0.316 µM, first compound 0.01 µM
[7] = second compound 0.316 µM, first compound 0.0316 µM
[8] = second compound 0.316 µM, first compound 0.1 µM
[9] = second compound 1 µM, first compound 0.00316 µM
[10] = second compound 1 µM, first compound 0.01 µM
[11] = second compound 1 µM, first compound 0.0316 µM
[12] = second compound 1 µM, first compound 0.1 µM
[13] = second compound 3.16 µM, first compound 0.00316 µM
[14] = second compound 3.16 µM, first compound 0.01 µM
[15] = second compound 3.16 µM, first compound 0.0316 µM
[16] = second compound 3.16 µM, first compound 0.1 µM
[17] = second compound 10 µM, first compound 0.00316 µM
[18] = second compound 10 µM, first compound 0.01 µM
[19] = second compound 10 µM, first compound 0.0316 µM
[20] = second compound 10 µM, first compound 0.1 µM
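Further: spheroids exposed to agents for 7 days before readout.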

With `O=C(C=Cn1cnc(-c2cc(C(F)(F)F)cc(C(F)(F)F)c2)n1)NNc1cnccn1` + NC1CCC(NC2CC2c2ccccc2)CC1 the IC50 (second compound 0.1 µM) was 4.66 nM, the IC50 (second compound 0.316 µM) was less than 3.16 nM and the IC50 (second compound 1 µM) was 5.06 nM. The IC50 (second compound 3.16 µM) was 4.22 nM, the IC50 (second compound 10 µM) was 4.01 nM and the viability, T/C [1] was 55.5%. The viability, T/C [2] was 39.2%, the viability, T/C [3] was 19.9% and the viability, T/C [4] was 10.1%. For the same molecule, the viability, T/C (second compound 0.1 µM, first compound 0.316 µM) was 6.81%, the viability, T/C (second compound 0.1 µM, first compound 1 µM) was 3.54% and the viability, T/C [5] was 49.3%. It also gave a viability, T/C [6] of 37.7%, a viability, T/C [7] of 19.9% and a viability, T/C [8] of 9.54%. For the same molecule, the viability, T/C (second compound 0.316 µM, first compound 0.316 µM) was 6.12%, the viability, T/C (second compound 0.316 µM, first compound 1 µM) was 3.24% and the viability, T/C [9] was 56.9%. For the same molecule, the viability, T/C [10] was 40%, the viability, T/C [11] was 22.6% and the viability, T/C [12] was 11.8%. The viability, T/C (second compound 1 µM, first compound 0.316 µM) was 5.1%, the viability, T/C (second compound 1 µM, first compound 1 µM) was 3.42% and the viability, T/C [13] was 53.8%. For the same molecule, the viability, T/C [14] was 38.8%, the viability, T/C [15] was 22.6% and the viability, T/C [16] was 12%. It also gave a viability, T/C (second compound 3.16 µM, first compound 0.316 µM) of 6.8%, a viability, T/C (second compound 3.16 µM, first compound 1 µM) of 4.08% and a viability, T/C [17] of 53.4%. For the same molecule, the viability, T/C [18] was 37.1%, the viability, T/C [19] was 25.7% and the viability, T/C [20] was 15.3%. It also gave a viability, T/C (second compound 10 µM, first compound 0.316 µM) of 7.05% and a viability, T/C (second compound 10 µM, first compound 1 µM) of 4.89%.

Work on `CCc1c2c(nc3ccc(O)cc13)-c1cc3c(c(=O)n1C2)COC(=O)[C@]3(O)CC` + NC1CCC(NC2CC2c2ccccc2)CC1 yielded an IC50 (second compound 0.1 µM) of less than 0.949 nM, an IC50 (second compound 0.316 µM) of less than 0.949 nM and an IC50 (second compound 1 µM) of less than 0.949 nM. The IC50 (second compound 3.16 µM) was less than 0.949 nM, the IC50 (second compound 10 µM) was less than 0.949 nM and the viability, T/C (second compound 0.1 µM, first compound 0.000949 µM) was 8.91%. The viability, T/C (second compound 0.1 µM, first compound 0.003 µM) was 8.28%, the viability, T/C (second compound 0.1 µM, first compound 0.00949 µM) was 5.05% and the viability, T/C (second compound 0.1 µM, first compound 0.03 µM) was 2.05%. The viability, T/C (second compound 0.1 µM, first compound 0.0949 µM) was 0.06%, the viability, T/C (second compound 0.1 µM, first compound 0.3 µM) was 0.13% and the viability, T/C (second compound 0.316 µM, first compound 0.000949 µM) was 7.86%. The viability, T/C (second compound 0.316 µM, first compound 0.003 µM) was 10.2%, the viability, T/C (second compound 0.316 µM, first compound 0.00949 µM) was 6.24% and the viability, T/C (second compound 0.316 µM, first compound 0.03 µM) was 2.68%. For the same molecule, the viability, T/C (second compound 0.316 µM, first compound 0.0949 µM) was 0.06%, the viability, T/C (second compound 0.316 µM, first compound 0.3 µM) was 0.11% and the viability, T/C (second compound 1 µM, first compound 0.000949 µM) was 8.46%. For the same molecule, the viability, T/C (second compound 1 µM, first compound 0.003 µM) was 8.97%, the viability, T/C (second compound 1 µM, first compound 0.00949 µM) was 6.82% and the viability, T/C (second compound 1 µM, first compound 0.03 µM) was 2.81%. It also gave a viability, T/C (second compound 1 µM, first compound 0.0949 µM) of 0.06%, a viability, T/C (second compound 1 µM, first compound 0.3 µM) of 0.1% and a viability, T/C (second compound 3.16 µM, first compound 0.000949 µM) of 9.74%. The viability, T/C (second compound 3.16 µM, first compound 0.003 µM) was 9.76%, the viability, T/C (second compound 3.16 µM, first compound 0.00949 µM) was 7.3% and the viability, T/C (second compound 3.16 µM, first compound 0.03 µM) was 2.95%. For the same molecule, the viability, T/C (second compound 3.16 µM, first compound 0.0949 µM) was 0.08%, the viability, T/C (second compound 3.16 µM, first compound 0.3 µM) was 0.11% and the viability, T/C (second compound 10 µM, first compound 0.000949 µM) was 9.49%. It also gave a viability, T/C (second compound 10 µM, first compound 0.003 µM) of 9.84%, a viability, T/C (second compound 10 µM, first compound 0.00949 µM) of 8.1% and a viability, T/C (second compound 10 µM, first compound 0.03 µM) of 2.75%. The viability, T/C (second compound 10 µM, first compound 0.0949 µM) was 0.08% and the viability, T/C (second compound 10 µM, first compound 0.3 µM) was 0.13%.

In the case of `Cn1ncnc1C1c2n[nH]c(=O)c3cc(F)cc(c23)NC1c1ccc(F)cc1` (stereo not given) + NC1CCC(NC2CC2c2ccccc2)CC1, the IC50 (second compound 0.1 µM) is reported as greater than 100 nM, the IC50 (second compound 0.316 µM) is reported as greater than 100 nM and the IC50 (second compound 1 µM) is reported as greater than 100 nM. The IC50 (second compound 3.16 µM) was 79.7 nM, the IC50 (second compound 10 µM) was 73.8 nM and the viability, T/C (second compound 0.1 µM, first compound 0.000316 µM) was 75.7%. The viability, T/C (second compound 0.1 µM, first compound 0.001 µM) was 81.6%, the viability, T/C [1] was 66.8% and the viability, T/C [2] was 64.1%. For the same molecule, the viability, T/C [3] was 63.1%, the viability, T/C [4] was 50.8% and the viability, T/C (second compound 0.316 µM, first compound 0.000316 µM) was 95%. The viability, T/C (second compound 0.316 µM, first compound 0.001 µM) was 86.9%, the viability, T/C [5] was 73.8% and the viability, T/C [6] was 66.3%. It also gave a viability, T/C [7] of 65.4%, a viability, T/C [8] of 55.8% and a viability, T/C (second compound 1 µM, first compound 0.000316 µM) of 70.3%. For the same molecule, the viability, T/C (second compound 1 µM, first compound 0.001 µM) was 71.1%, the viability, T/C [9] was 77.2% and the viability, T/C [10] was 73%. It also gave a viability, T/C [11] of 59.8%, a viability, T/C [12] of 52.6% and a viability, T/C (second compound 3.16 µM, first compound 0.000316 µM) of 68.1%. It also gave a viability, T/C (second compound 3.16 µM, first compound 0.001 µM) of 77.6%, a viability, T/C [13] of 74.7% and a viability, T/C [14] of 66.8%. It also gave a viability, T/C [15] of 58.4%, a viability, T/C [16] of 48.1% and a viability, T/C (second compound 10 µM, first compound 0.000316 µM) of 66.2%. For the same molecule, the viability, T/C (second compound 10 µM, first compound 0.001 µM) was 72.7%, the viability, T/C [17] was 71.8% and the viability, T/C [18] was 65%. It also gave a viability, T/C [19] of 54.7% and a viability, T/C [20] of 48.3%.
